Structure (SMILES)	solubility (mole fraction) (in n-octanol, 298.15 K)	solubility (mole fraction) (in n-octanol, 303.15 K)	solubility (mole fraction) (in n-octanol, 308.15 K)	solubility (mole fraction) (in n-octanol, 313.15 K)	solubility (mole fraction) (in water, 298.15 K)	solubility (mole fraction) (in water, 303.15 K)	solubility (mole fraction) (in water, 308.15 K)	solubility (mole fraction) (in water, 313.15 K)
Nc1ccc(S(=O)(=O)Nc2ncccn2)cc1	1.39e-05	1.79e-05	2.32e-05	3.09e-05	4.87e-06	5.98e-06	7.94e-06	1.09e-05
Nc1ccc(S(=O)(=O)Nc2nccs2)cc1	9.49e-05	0.00013	0.000168	0.000206	3.25e-05	4.33e-05	5.92e-05	7.35e-05

Source: BigSolDB 2.1
